Among the data in ChEMBL document CHEMBL4118220, “Design, synthesis and biological evaluation of phosphopeptides as Polo-like kinase 1 Polo-box domain inhibitors” (Bioorg Med Chem, 2018) are IC50 values, retold here.

Structures are written as SMILES. Square brackets hold non-standard residues; d marks the D form. Peptide text beside a SMILES is read from it. Phe(4-NO2) = N[C@@H](Cc1ccc([N+](=O)[O-])cc1)C(=O)O; Phe(3,4-Cl2) = N[C@@H](Cc1ccc(Cl)c(Cl)c1)C(=O)O; Phe(4-F) = N[C@@H](Cc1ccc(F)cc1)C(=O)O; pT = C[C@@H](OP(=O)(O)O)[C@H](N)C(=O)O

Experiment [1] concerns the target Serine/threonine-protein kinase PLK3 (Homo sapiens, UniProt Q9H4B4). In words: Inhibition of FITC-GPLATSpTPKNG-OH binding to Plk3 PBD (unknown origin) after 30 mins by fluorescence polarization assay. (In general: In fluorescence polarisation assays a small probe gives low polarisation when free and higher when bound to something large.)
Experiment [2] addresses Serine/threonine-protein kinase PLK2 (Homo sapiens, UniProt Q9NYY3). In words: Inhibition of FITC-GPMQTSpTPKNG-OH binding to Plk2 PBD (unknown origin) after 30 mins by fluorescence polarization assay.

Chain of Serine/threonine-protein kinase PLK3 (Q9H4B4 whole entry): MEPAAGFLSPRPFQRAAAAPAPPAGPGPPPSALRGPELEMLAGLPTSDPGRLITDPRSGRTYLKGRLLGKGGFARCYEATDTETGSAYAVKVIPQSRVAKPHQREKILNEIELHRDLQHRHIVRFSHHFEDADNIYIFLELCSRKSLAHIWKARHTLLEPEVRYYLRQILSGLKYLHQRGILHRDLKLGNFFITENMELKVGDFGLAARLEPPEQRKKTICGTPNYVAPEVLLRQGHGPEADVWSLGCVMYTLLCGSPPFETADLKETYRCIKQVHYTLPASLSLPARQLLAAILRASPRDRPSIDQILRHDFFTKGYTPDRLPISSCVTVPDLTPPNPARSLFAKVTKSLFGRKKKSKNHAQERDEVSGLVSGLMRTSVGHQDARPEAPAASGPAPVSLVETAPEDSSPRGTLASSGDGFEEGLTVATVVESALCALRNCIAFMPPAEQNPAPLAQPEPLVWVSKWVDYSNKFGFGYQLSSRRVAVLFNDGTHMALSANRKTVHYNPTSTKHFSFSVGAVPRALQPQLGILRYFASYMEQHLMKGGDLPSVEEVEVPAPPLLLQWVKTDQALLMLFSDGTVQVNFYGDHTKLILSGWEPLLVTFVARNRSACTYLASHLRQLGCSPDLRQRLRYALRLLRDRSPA
Chain of Serine/threonine-protein kinase PLK2 (Q9NYY3 whole entry): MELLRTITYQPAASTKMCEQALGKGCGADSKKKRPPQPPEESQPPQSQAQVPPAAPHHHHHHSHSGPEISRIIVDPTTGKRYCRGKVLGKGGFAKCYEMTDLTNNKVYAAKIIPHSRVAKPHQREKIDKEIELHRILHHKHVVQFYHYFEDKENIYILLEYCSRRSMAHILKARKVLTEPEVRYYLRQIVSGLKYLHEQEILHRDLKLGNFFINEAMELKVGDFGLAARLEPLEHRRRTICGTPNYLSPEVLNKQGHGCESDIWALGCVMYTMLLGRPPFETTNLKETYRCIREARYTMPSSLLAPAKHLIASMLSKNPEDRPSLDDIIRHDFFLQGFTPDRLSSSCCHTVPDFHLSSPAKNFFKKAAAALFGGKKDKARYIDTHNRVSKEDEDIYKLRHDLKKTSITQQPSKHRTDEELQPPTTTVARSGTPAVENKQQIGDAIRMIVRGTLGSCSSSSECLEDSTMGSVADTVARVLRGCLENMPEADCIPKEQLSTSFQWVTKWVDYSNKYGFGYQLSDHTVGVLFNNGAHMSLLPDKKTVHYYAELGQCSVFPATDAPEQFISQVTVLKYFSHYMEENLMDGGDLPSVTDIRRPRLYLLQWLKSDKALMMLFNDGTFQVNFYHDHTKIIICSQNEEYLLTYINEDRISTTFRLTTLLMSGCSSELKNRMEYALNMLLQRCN

As to `CC[C@H](C)[C@H](NC(=O)[C@H](C)NC(=O)[C@@H](NC(=O)[C@H](CO)NC(=O)[C@H](Cc1cnc[nH]1)NC(=O)[C@H](CC(C)C)NC(=O)[C@@H]1CCCN1C(=O)[C@@H]1CCCN1C(=O)[C@H](CC(=O)O)NC(=O)[C@H](Cc1ccc(F)cc1)NC(=O)[C@@H](NC(=O)[C@H](CCC(N)=O)NC(C)=O)[C@@H](C)O)[C@@H](C)OP(=O)(O)O)C(=O)N[C@@H](Cc1ccc(O)cc1)C(=O)N[C@@H](C)C(=O)N[C@@H](CC(N)=O)C(N)=O` (Ac-QT[Phe(4-F)]DPPLHS[pT]AIYAN-NH2), the IC50 entry in experiment [1] and in experiment [2] was “Not Active” in each case.
Consider `CC[C@H](C)[C@H](NC(=O)[C@H](C)NC(=O)[C@@H](NC(=O)[C@H](CO)NC(=O)[C@H](Cc1cnc[nH]1)NC(=O)[C@H](CC(C)C)NC(=O)[C@@H]1CCCN1C(=O)[C@@H]1CCCN1C(=O)[C@H](CC(=O)O)NC(=O)[C@H](Cc1ccc([N+](=O)[O-])cc1)NC(=O)[C@@H](NC(=O)[C@H](CCC(N)=O)NC(C)=O)[C@@H](C)O)[C@@H](C)OP(=O)(O)O)C(=O)N[C@@H](Cc1ccc(O)cc1)C(=O)N[C@@H](C)C(=O)N[C@@H](CC(N)=O)C(N)=O` (Ac-QT[Phe(4-NO2)]DPPLHS[pT]AIYAN-NH2), for which the IC50 result in experiment [1] and in experiment [2] was “Not Active” each time.
As to `CC[C@H](C)[C@H](NC(=O)[C@H](C)NC(=O)[C@@H](NC(=O)[C@H](CO)NC(=O)[C@H](Cc1cnc[nH]1)NC(=O)[C@H](CC(C)C)NC(=O)[C@@H]1CCCN1C(=O)[C@@H]1CCCN1C(=O)[C@H](CC(=O)O)NC(=O)[C@H](Cc1ccc(Cl)c(Cl)c1)NC(=O)[C@H](CCC(N)=O)NC(C)=O)[C@@H](C)O)C(=O)N[C@@H](Cc1ccc(O)cc1)C(=O)N[C@@H](C)C(=O)N[C@@H](CC(N)=O)C(N)=O` (Ac-Q[Phe(3,4-Cl2)]DPPLHSTAIYAN-NH2), the concentration for half-maximal inhibition (IC50) result in experiment [1] and in experiment [2] was “Not Active” each time.
For the compound `CC[C@H](C)[C@H](NC(=O)[C@H](C)NC(=O)[C@@H](NC(=O)[C@H](CO)NC(=O)[C@H](Cc1cnc[nH]1)NC(=O)[C@H](CC(C)C)NC(=O)[C@@H]1CCCN1C(=O)[C@@H]1CCCN1C(=O)[C@H](CC(=O)O)NC(=O)[C@H](Cc1ccc(Cl)c(Cl)c1)NC(=O)[C@@H](NC(C)=O)[C@@H](C)O)[C@@H](C)OP(=O)(O)O)C(=O)N[C@@H](Cc1ccc(O)cc1)C(=O)N[C@@H](C)C(=O)N[C@@H](CC(N)=O)C(N)=O` (Ac-T[Phe(3,4-Cl2)]DPPLHS[pT]AIYAN-NH2), the IC50 entry in experiment [1] and in experiment [2] was “Not Active” each time.
Turning to `CC[C@H](C)[C@H](NC(=O)[C@H](C)NC(=O)[C@@H](NC(=O)[C@H](CO)NC(=O)[C@H](Cc1cnc[nH]1)NC(=O)[C@H](CC(C)C)NC(=O)[C@@H]1CCCN1C(=O)[C@@H]1CCCN1C(=O)[C@H](CC(=O)O)NC(=O)[C@H](Cc1ccc(Cl)c(Cl)c1)NC(C)=O)[C@@H](C)OP(=O)(O)O)C(=O)N[C@@H](Cc1ccc(O)cc1)C(=O)N[C@@H](C)C(=O)N[C@@H](CC(N)=O)C(N)=O` (Ac-[Phe(3,4-Cl2)]DPPLHS[pT]AIYAN-NH2), the IC50 (in general, the point on the concentration scale where inhibition reaches its midpoint) in experiment [1] was “Not Active”; in experiment [2] (read-out: IC50) it was 716 nM.
